Test results: US20230257376A1, “ROCK INHIBITOR, AND PREPARATION METHOD THEREFOR AND USE THEREOF” (WUHAN LL SCIENCE AND TECHNOLOGY DEVELOPMENT CO., LTD., priority 2020, published 2023)

How the values were obtained:
[1] = In vivo pharmacokinetic study in mice; details: mouse, plasma; for bioavailability: 1 mg/kg Po (fasted) vs 1 mg/kg Iv; for AUC(0-t) / Cmax: 1 mg/kg
Description: […] After administration, plasma of mice was collected at specific time points, and the concentration of the compound in the plasma was detected by LC-MS/MS (AB SCIEX Qtrap4500). The PK parameters of the compounds were statistically analyzed and calculated (WinNonlin V5.2, Pharsight) to show the pharmacokinetic properties of the compounds disclosed herein in mice.

[2] = In vitro cytotoxicity assay in HepG2 cells using the CCK-8 method; assay type: cell-based; details: human
Experimental: In vitro cytotoxicity assay for the compounds disclosed herein was performed in HepG2 cells using the CCK-8 method. HepG2 cells (Beina Bio) in the logarithmic growth phase were collected, the concentration of cell suspension was adjusted, and then the cells were plated on a 96-well cell culture plate at 50,000 cells/well. The cells were then incubated overnight in a cell incubator (5%, 37° C.), and after 80-90% cell confluence was achieved, test compound at each concentration gradient or vehicle (DMSO) was added after medium change. The resulting mixture was incubated in the cell incubator (5%, 37° C.) for 48 h. After the treatment, the medium in the plate was discarded. The plate was washed twice with PBS, added with CCK-8 working solution (Beyotime) at 100 μL per well, and then incubated at 37° C. for 1.5 h in the dark. Absorbance at OD450 nm mil was measured for each well on a microplate reader, and CC50 value of each compound was analyzed and calculated.

[3] = molecular target: T1, ROCK1 kinase (Homo sapiens, UniProt Q13464); assay: In vitro evaluation of ROCK1 kinase selectivity (HTRF KinEASE-STK time-resolved fluorometric assay); assay type: biochemical; details: ROCK1 kinase 0.4 ng/μL, ATP 3.53 μM
T1 construct: purchased Invitrogen
Experimental: ROCK1 activity was detected using a 96-well (Cisbio) time-resolved fluorometric assay. The assay for ROCK1 was performed in the following assay buffer: 5 mM MgCl2 (Sigma), 1 mM DTT (Sigma) and 1× kinase buffer. The kinase buffer was used for dilution. 7.5 μL of ROCK1 kinase (Invitrogen) was added to a 96-well microplate to reach a final concentration of 0.4 ng/μL, and then 0.25 μL of test compound (DMSO content: 1%) was added. The mixture was incubated at room temperature for 0.5 h. To start the reaction, the kinase buffer was also used to mix ATP (Aladdin) and the substrate STK-substrate 2-biotin. 7.5 μL of the mixed solution was added to the microplate to reach final concentrations of 3.53 μM and 1 μM. The resulting mixture was incubated at room temperature for 2 h. 5 mL of detection buffer was mixed with STK antibody-Cryptate, and then an appropriate volume of the mixture was mixed with an equal volume of streptavidin-XL665. 10 μL of the resulting mixture was added to stop the reaction. After further incubation for about 1 h, the microplate was read on a Molecular Devices SpectraMax i3x multifunctional microplate reader. The kinase buffer, the STK-substrate 2-biotin, the detection buffer, the STK antibody-Cryptate, and the streptavidin-XL665 were all from HTRF KinEASE-STK kit (Cisbio, 1000 tests, 61GSTXLA).

[4] = In vitro metabolic stability, rat liver microsome incubation; assay type: in vitro ADME; details: liver microsomes, 1 mg/mL protein, 37° C., read-out: T1/2 in rat liver microsome
Experimental: (§1) The in vitro metabolic stability of the compounds disclosed herein was determined through incubation of liver microsomes of various species. A proper amount of test compound was added into a liver microsome reaction system (1 mg/mL liver microsome protein, 25 U/mL glucose-6 phosphate dehydrogenase, 1 mM NADP, 6 mM D-glucose 6-phosphate and 5 mM MgCl2), and then the mixture was incubated in a water bath kettle at 37° C. to start reaction. At each time point, 100 μL of the reaction liquid was added into a centrifuge tube containing 400 μL of internal standard working solution (containing a 200 ng/mL solution of dexamethasone, diclofenac, tolbutamide and labetalol in acetonitrile) precooled at 0° C. so as to stop the reaction, and the mixture was then centrifuged at 10,000 g for 10 min at 4° C. The supernatant was collected for LC-MS assay so as to obtain the values of in vitro metabolic half-life of the test compounds in liver microsomes of various species.

[5] = molecular target: T2, ROCK2 kinase (Homo sapiens, UniProt O75116); assay: In vitro evaluation of ROCK2 kinase activity (HTRF KinEASE-STK time-resolved fluorometric assay); assay type: biochemical; details: ROCK2 kinase 0.4 ng/μL, ATP 6.739 μM
T2 construct: purchased Invitrogen PV3759
Experimental: ROCK2 activity screening. ROCK2 activity was detected using a 96-well (Cisbio) time-resolved fluorometric assay. The assay for ROCK2 was performed in the following assay buffer: 5 mM MgCl2 (Sigma), 1 mM DTT (Sigma) and 1× kinase buffer. The kinase buffer was used for dilution. 7.5 μL of ROCK2 kinase (Invitrogen, PV3759) was added to a 96-well microplate to reach a final concentration of 0.4 ng/μL, and then 0.25 μL of test compound (DMSO content: 1% (volume fraction)) was added. The mixture was incubated at room temperature for 0.5 h. To start the reaction, the kinase buffer was used to mix ATP (Aladdin) and the substrate STK-substrate 2-biotin. 7.5 μL of the mixed solution was added to the microplate to reach final concentrations of 6.739 μM and 1 μM. The resulting mixture was incubated at room temperature for 2 h. 5 mL of detection buffer was mixed with STK antibody-Cryptate, and then an appropriate volume of the mixture was mixed with an equal volume of streptavidin-XL665. 10 μL of the resulting mixture was added to the microplate to stop the reaction. After further incubation for about 1 h, the microplate was read on a Molecular Devices SpectraMax i3x multifunctional microplate reader. The kinase buffer, the STK-substrate 2-biotin, the detection buffer, the STK antibody-Cryptate, and the streptavidin-XL665 were all from HTRF KinEASE-STK kit (Cisbio, 1000 tests, 61GSTXLA).

[6] = In vitro metabolic stability, guinea pig liver microsome incubation; assay type: in vitro ADME; details: liver microsomes, 1 mg/mL protein, 37° C., read-out: T1/2 in guinea pig liver microsome
Experimental: as §1

[7] = In vitro metabolic stability, human liver microsome incubation; assay type: in vitro ADME; details: liver microsomes, 1 mg/mL protein, 37° C., read-out: T1/2 in human liver microsome
Experimental: as §1

T2 sequence (O75116 whole entry): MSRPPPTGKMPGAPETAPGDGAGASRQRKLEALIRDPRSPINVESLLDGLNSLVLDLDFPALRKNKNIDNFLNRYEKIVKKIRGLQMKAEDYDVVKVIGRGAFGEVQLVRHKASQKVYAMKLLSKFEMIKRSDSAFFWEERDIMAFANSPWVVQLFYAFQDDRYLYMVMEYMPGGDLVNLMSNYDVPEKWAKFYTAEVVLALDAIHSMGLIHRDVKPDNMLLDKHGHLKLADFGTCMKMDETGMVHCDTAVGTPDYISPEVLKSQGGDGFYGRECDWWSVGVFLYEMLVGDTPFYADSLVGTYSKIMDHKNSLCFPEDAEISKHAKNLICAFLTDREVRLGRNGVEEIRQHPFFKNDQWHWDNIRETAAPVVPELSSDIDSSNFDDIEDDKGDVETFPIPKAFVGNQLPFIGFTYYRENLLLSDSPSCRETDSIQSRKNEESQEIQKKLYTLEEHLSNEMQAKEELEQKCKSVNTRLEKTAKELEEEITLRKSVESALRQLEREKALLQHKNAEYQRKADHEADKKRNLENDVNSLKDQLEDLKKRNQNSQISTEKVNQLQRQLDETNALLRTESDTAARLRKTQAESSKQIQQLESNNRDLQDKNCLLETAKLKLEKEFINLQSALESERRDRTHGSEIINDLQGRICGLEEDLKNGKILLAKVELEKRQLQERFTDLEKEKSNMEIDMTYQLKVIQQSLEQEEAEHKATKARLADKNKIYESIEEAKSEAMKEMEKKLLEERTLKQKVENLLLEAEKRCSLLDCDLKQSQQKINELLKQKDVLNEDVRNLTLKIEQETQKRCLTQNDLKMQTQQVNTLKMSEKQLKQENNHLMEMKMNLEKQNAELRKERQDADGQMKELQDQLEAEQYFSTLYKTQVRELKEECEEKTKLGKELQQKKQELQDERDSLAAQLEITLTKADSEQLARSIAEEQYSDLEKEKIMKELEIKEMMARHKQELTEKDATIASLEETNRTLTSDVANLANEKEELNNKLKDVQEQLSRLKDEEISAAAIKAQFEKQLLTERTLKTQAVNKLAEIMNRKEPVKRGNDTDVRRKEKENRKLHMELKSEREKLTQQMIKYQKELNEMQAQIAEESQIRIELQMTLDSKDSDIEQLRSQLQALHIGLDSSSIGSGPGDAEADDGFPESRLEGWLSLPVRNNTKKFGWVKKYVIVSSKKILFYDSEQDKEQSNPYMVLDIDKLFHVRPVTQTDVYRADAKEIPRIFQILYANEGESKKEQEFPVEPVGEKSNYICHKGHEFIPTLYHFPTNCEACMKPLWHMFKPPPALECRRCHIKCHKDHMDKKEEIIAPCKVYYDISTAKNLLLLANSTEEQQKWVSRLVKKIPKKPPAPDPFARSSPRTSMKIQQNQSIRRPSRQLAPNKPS
T1 sequence (Q13464 whole entry): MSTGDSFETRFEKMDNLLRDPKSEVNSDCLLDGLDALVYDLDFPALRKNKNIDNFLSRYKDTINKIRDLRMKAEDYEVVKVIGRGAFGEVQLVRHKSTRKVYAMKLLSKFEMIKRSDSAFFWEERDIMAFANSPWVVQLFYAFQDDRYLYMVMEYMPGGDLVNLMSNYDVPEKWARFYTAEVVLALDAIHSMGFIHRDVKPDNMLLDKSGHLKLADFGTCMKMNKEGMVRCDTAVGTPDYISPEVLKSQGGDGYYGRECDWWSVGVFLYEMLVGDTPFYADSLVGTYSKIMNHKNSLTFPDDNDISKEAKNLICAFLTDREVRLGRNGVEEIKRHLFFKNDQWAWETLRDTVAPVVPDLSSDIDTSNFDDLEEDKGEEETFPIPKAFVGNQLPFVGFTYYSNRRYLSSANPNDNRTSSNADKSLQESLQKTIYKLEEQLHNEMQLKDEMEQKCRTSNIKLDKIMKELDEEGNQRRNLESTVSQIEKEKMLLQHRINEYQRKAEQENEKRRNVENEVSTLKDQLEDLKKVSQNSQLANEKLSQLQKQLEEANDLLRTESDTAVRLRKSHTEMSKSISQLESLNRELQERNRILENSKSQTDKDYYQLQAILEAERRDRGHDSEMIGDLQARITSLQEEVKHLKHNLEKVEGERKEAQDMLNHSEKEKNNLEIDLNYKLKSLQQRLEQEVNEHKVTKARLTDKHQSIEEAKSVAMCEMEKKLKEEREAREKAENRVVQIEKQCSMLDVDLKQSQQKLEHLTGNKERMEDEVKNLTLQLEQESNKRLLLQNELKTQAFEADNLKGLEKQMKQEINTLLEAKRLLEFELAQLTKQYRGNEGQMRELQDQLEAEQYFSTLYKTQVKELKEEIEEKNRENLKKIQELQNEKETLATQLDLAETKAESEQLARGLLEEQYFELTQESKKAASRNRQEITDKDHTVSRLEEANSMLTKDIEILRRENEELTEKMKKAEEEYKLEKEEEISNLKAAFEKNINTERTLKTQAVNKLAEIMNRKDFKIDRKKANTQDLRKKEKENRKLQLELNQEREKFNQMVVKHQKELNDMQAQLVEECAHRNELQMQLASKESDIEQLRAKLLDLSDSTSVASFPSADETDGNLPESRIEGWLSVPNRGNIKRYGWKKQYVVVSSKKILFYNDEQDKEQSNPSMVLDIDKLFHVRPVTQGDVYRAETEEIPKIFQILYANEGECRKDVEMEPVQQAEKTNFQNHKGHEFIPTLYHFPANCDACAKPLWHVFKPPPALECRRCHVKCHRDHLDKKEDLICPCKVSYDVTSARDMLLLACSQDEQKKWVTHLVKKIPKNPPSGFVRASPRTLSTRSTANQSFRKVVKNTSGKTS

bioavailability [1] | AUC(0-t) ([1]; Iv) | Cmax ([1]; Iv) | AUC(0-t) ([1]; Po (fasted)) | Cmax ([1]; Po (fasted)) | IC50 [3] | half-life [4] | IC50 [5] | half-life [6] | half-life [7] | SMILES | CC50 at 48 h [2]
82.7% | 412 ng·h/mL | 517 ng/mL | 341 ng·h/mL | 116 ng/mL | > 4.5 µM | 2.11 h | ≤ 0.05 µM | 10.3 h | 0.956 h | Cn1c(C(=O)N2CC(F)(F)C2)cc2c1CN(c1ncc(F)c(Nc3ccc(-c4cn[nH]c4)cc3)n1)CC2 [Compound L027, (6-(4-((4-(1H-pyrazol-4-yl)phenyl)amino)-5-fluoropyrimidin-2-yl)-1-methyl-4,5,6,7-tetrahydro-1H-pyrrolo[2,3-c]pyridin-2-yl)(3,3-difluoroazetidin-1-yl)methanone] | > 100 µM
– | – | – | – | – | > 4.5 µM | 0.759 h | 0.05 to 0.5 µM | 2.18 h | 3.17 h | Cn1c(C(=O)N2CC(F)(F)C2)cc2c1CN(c1nc(Nc3ccc(-c4cn[nH]c4)cc3)c3cccn3n1)CC2 [Compound L057, (6-(4-((4-(1H-pyrazol-4-yl)phenyl)amino)pyrrolo[2,1-f][1,2,4]triazin-2-yl)-1-methyl-4,5,6,7-tetrahydro-1H-pyrrolo[2,3-c]pyridin-2-yl)(3,3-difluoroazetidin-1-yl)methanone] | > 100 µM
– | – | – | – | – | > 4.5 µM | 1.02 h | ≤ 0.05 µM | 0.473 h | 3.95 h | COc1cnc(N2CCc3cc(C(=O)N4CC(F)(F)C4)n(C)c3C2)nc1Nc1ccc(-c2cn[nH]c2)cc1 [Compound L026, (6-(4-((4-(1H-pyrazol-4-yl)phenyl)amino)-5-methoxypyrimidin-2-yl)-1-methyl-4,5,6,7-tetrahydro-1H-pyrrolo[2,3-c]pyridin-2-yl)(3,3-difluoroazetidin-1-yl)methanone] | > 100 µM
30.6% | 726 ng·h/mL | 1120 ng/mL | 225 ng·h/mL | 60 ng/mL | > 4.5 µM | 2.64 h | 0.05 to 0.5 µM | 0.969 h | 3.46 h | Cn1c(C(=O)N2CC(F)(F)C2)cc2c1CN(c1nc(F)cc(Nc3ccc(-c4cn[nH]c4)cc3)n1)CC2 [Compound L030, (6-(4-((4-(1H-pyrazol-4-yl)phenyl)amino)-6-fluoropyrimidin-2-yl)-1-methyl-4,5,6,7-tetrahydro-1H-pyrrolo[2,3-c]pyridin-2-yl)(3,3-difluoroazetidin-1-yl)methanone] | > 100 µM
54.8% | 787 ng·h/mL | 594 ng/mL | 431 ng·h/mL | 109 ng/mL | – | 3.49 h | 0.05 to 0.5 µM | 2.83 h | 7.32 h | Cc1nc(Nc2ccc(-c3cn[nH]c3)cc2)nc(N2CCc3cc(C(=O)N4CC(F)(F)C4)n(C)c3C2)n1 [Compound L044] | 58.1 µM
– | – | – | – | – | > 4.5 µM | 1.03 h | 0.05 to 0.5 µM | 1.07 h | 4.32 h | Cc1nc(Nc2ccc(-c3cn[nH]c3)cc2)nc(N2CCc3cc(C(=O)N4CC(C#N)C4)n(C)c3C2)n1 [Compound L050, 1-(6-(4-((4-(1H-pyrazol-4-yl)phenyl)amino)-6-methyl-1,3,5-triazin-2-yl)-1-methyl-4,5,6,7-tetrahydro-1H-pyrrolo[2,3-c]pyridin-2-carbonyl)azetidine-3-carbonitrile] | > 100 µM
– | – | – | – | – | > 4.5 µM | 1.08 h | 0.05 to 0.5 µM | 0.84 h | 4.82 h | Cn1c(C(=O)N2CC(F)(F)C2)cc2c1CN(c1nc(CC#N)nc(Nc3ccc(-c4cn[nH]c4)cc3)n1)CC2 [Compound L051, 2-(4-((4-(1H-pyrazol-4-yl)phenyl)amino)-6-(2-(3,3-difluoroazetidin-1-carbonyl)-1-methyl-1,4,5,7-tetrahydro-6H-pyrrolo[2,3-c]pyridin-6-yl)-1,3,5-triazin-2-yl)acetonitrile] | > 100 µM
– | – | – | – | – | > 4.5 µM | 0.879 h | ≤ 0.05 µM | 0.701 h | 1.01 h | Cn1c(C(=O)N2CC(C#N)C2)cc2c1CN(c1ncc(F)c(Nc3ccc(-c4cn[nH]c4)cc3)n1)CC2 [Compound L056, 1-(6-(4-((4-(1H-pyrazol-4-yl)phenyl)amino)-5-fluoropyrimidin-2-yl)-1-methyl-4,5,6,7-tetrahydro-1H-pyrrolo[2,3-c]pyridin-2-carbonyl)azetidine-3-carbonitrile] | > 100 µM
– | – | – | – | – | > 4.5 µM | 0.708 h | 0.05 to 0.5 µM | 0.563 h | 1.35 h | Cn1c(C(=O)OCC(F)(F)F)cc2c1CN(c1nccc(Nc3ccc(-c4cn[nH]c4)cc3)n1)CC2 [Compound L032, 2,2,2-trifluoroethyl 6-(4-((4-(1H-pyrazol-4-yl)phenyl)amino)pyrimidin-2-yl)-1-methyl-4,5,6,7-tetrahydro-1H-pyrrolo[2,3-c]pyridine-2-carboxylate] | 28.4 µM
59.9% | 349 ng·h/mL | 473 ng/mL | 209 ng·h/mL | 98.7 ng/mL | > 4.5 µM | 1.57 h | 0.05 to 0.5 µM | 1.25 h | 2.97 h | Cn1c(C(=O)N2CC(F)(F)C2)cc2c1CN(c1ncnc(Nc3ccc(-c4cn[nH]c4)cc3)n1)CC2 [Compound L036, (6-(4-((4-(1H-pyrazol-4-yl)phenyl)amino)-1,3,5-triazin-2-yl)-1-methyl-4,5,6,7-tetrahydro-1H-pyrrolo(2,3-c)pyridin-2-yl)(3,3-difluoroazetidin-1-yl)methanone] | > 100 µM
– | – | – | – | – | > 4.5 µM | 1.14 h | ≤ 0.05 µM | 0.837 h | 1.55 h | Cn1c(C(=O)N2CC(C(F)(F)F)C2)cc2c1CN(c1nccc(Nc3ccc(-c4cn[nH]c4)cc3)n1)CC2 [Compound L033] | > 100 µM
